[ ]: non-standard residue; d: D form. The star is where a group is joined. Cbz = O=C(OCc1ccccc1)*
Test system: panel of 29 cancer cell lines
Experiment: [3H]thymidine incorporation assay of Z-DTP-induced killing, correlated with Gadd45β mRNA expression (qRT-PCR)
Format: cell-based
Settings: 10 μM Z-DTP2 for 144 hrs, Pearson correlation p<0.01
Text: The significance of the correlation co-efficient between the two parameters is p<0.01 (Pearson correlation as calculated by GraphPad software).
For example, primary cell from multiple myeloma patients can be analysed for levels of Gadd45β expression, and patients with high levels of this expression can be deemed as those who will receive the most benefit from treatment with Gadd45β inhibitors.
In order to determine the basis for the different sensitivity of tumour cell lines to Z-DTP-induced killing, we measured levels of Gadd45β expression in a panel of 29 tumour cell lines or different tissues of origin by using quantitative real-time polymerase chain reaction (qRT-PCT) and correlated these levels with the degree of susceptibility of these cell lines to the cytotoxic activity of Z-DTPs. […] Experimental Ct values were normalized to β-actin, and relative mRNA expression calculated versus a reference sample (i.e. mRNA from HEK-293T cells). The sensitivity of cancer cell lines to Z-DTP-induced killing was analysed as described above by performing [^3H]thymidine incorporation assays after treatment of the cells with 10 μM of Z-DTP2 for 144 hrs. […] The significance of the correlation coefficient between the 2 parameters' domain was calculated by Pearson correlation, which quantifies the association between two variables, using the GraphPad software.

Z-DTP2: tetrapeptide Tyr-Glu-Arg-Phe, amino acids in the D configuration, NH2 group at the C terminal, benzyloxycarbonyl group at the N terminal; specific Gadd45β inhibitor (Cbz-[dY][dE][dR][dF]-NH2)
cancer cell sensitivity to Z-DTP-induced killing versus levels of endogenous Gadd45β expression: correlates with a very high degree of statistical significance

— patent US10697019B2, “Method of diagnosis and prognosis” (IMPERIAL COLLEGE INNOVATIONS LIMITED, priority 2011, dated 2020)
